Experimental data: patent US20260041744A1, “Methods for Treating Pompe Disease” (Amicus Therapeutics, Inc., priority 2022, published 2026)
“Also recorded” adds a separate entry of the source.

Key:
[1] = system: adults with Pompe disease; experiment: Study ATB200-02: MIP, MEP and other pulmonary measures; assay type: in vivo, human
Description: Mean CFBL in % predicted sitting FVC was generally stable (CFBL±3% points) for up to 48 months of follow-up in the ERT-experienced cohorts (FIG. 47A, Table 26B), with improvements (CFBL >3% points) at Months 48 in 66.7% of ERT-experienced and 75% of ERT-naïve patients.
In the ERT-naïve cohort, mean CFBL in % predicted sitting FVC improved at 3 months and then remained generally stable up to 48 months of follow up (FIG. 47B, Table 26B), except for one patient who experienced a large drop in % predicted sitting FVC at Month 21, which returned to previous levels at the following visit at Month 24. Mean % predicted sitting FVC improvements were more marked in the ERT-naïve cohort compared with the ERT-experienced cohort over 48 months of follow up (FIG. 47B, Table 26B). […] Percent predicted sitting FVC data were supported by similar outcomes in other pulmonary measures including % predicted maximum inspiratory pressure (MIP) and MEP.

[2] = system: adult subjects with late-onset Pompe disease (LOPD); experiment: Study ATB200-03 (PROPEL): 6-minute walk test (6MWD); assay type: in vivo, human
Method: Efficacy Analyses. The primary efficacy endpoint (i.e., change from baseline to Week 52 in 6MWD) was analyzed using a parametric analysis of covariance (ANCOVA) model to compare between the new treatment and the control. […] However, the baseline 6MWD could not be used in the model twice (both as a continuous and a categorical variable) due to the expected high point biserial correlation between them. Thus, the 6MWD continuous variable remained in the model but the categorical 6MWD was removed.
The test for the primary endpoint was conducted first at the 1-sided 0.025 significance level, and if significant, the ordered key secondary endpoints were similarly tested at the same significance level. The statistical significance of the key secondary endpoints was interpreted following a hierarchical testing order, each at the 1-sided alpha level of 0.025. […] Primary analyses of efficacy were performed using the mixed-effect model for repeated measures (MMRM) for 6MWD in Intent-to-treat Observed Population (ITT) that includes all available, observed data without any missing data imputation (ITT-OBS) and analysis of covariance (ANCOVA) for all other endpoints in the Intent-to-Treat-Last Observation Carried Forward (ITT-LOCF) Population. A nonparametric randomization based ANCOVA was specified as the first sensitivity analysis for 6MWD and FVC. […] For the purposes of data presentation in this document, 2-sided p-values are reported hereafter, except as otherwise noted.
Analysis of 6MWD was performed using an MMRM model with actual time point of assessments on the ITT-OBS and excluding the outlier Subject 4005-2511. Specifically, the dependent variable is the change from baseline in the assessment. Independent variables include the fixed, categorical effects of treatment, ERT status, and gender, as well as the fixed, continuous covariates of time of assessment (days), baseline 6MWD, baseline age, baseline weight, and baseline height, and the treatment-by-time interaction. A random intercept of subject is also included in the model. Change from baseline at Week 52 for each treatment group and the difference between treatment groups were then estimated with the LS means at Day 364, together with the 95% CIs.

[3] = Ambulatory ERT-experienced, 12 months
[4] = Ambulatory ERT-experienced, 24 months
[5] = Ambulatory ERT-experienced, 36 months
[6] = Ambulatory ERT-experienced, 48 months
[7] = Ambulatory ERT-naïve, 12 months
[8] = Ambulatory ERT-naïve, 24 months
[9] = Ambulatory ERT-naïve, 36 months
[10] = Ambulatory ERT-naïve, 48 months
[11] = Non-ambulatory ERT-experienced, 12 months
[12] = Non-ambulatory ERT-experienced, 24 months
[13] = Non-ambulatory ERT-experienced, 36 months
[14] = Non-ambulatory ERT-experienced, 48 months
[15] = Baseline, ITT, ERT-naïve Population excluding Subject 4005-2511
[16] = Week 52-LOCF, ERT-experienced Population
[17] = Week 52-LOCF, ITT excluding Subject 4005-2511
[18] = Week 52-LOCF, ITT, ERT-naïve Population excluding Subject 4005-2511
[19] = Week 52-Observed, ERT-experienced Population
[20] = Week 52-Observed, ITT excluding Subject 4005-2511
[21] = Week 52-Observed, ITT, ERT-naïve Population excluding Subject 4005-2511

ATB200/miglustat: two-component therapy: cipaglucosidase alfa (ATB200) administered in conjunction with miglustat (AT2221), a stabilizer of cipaglucosidase alfa
MEP / MIP outcome ([1]; 12, 24, 36, and 48 months, listed as cipaglucosidase alfa/miglustat): maximum expiratory pressure (MEP) results that also improved numerically from baseline; also recorded: MIP improved numerically in ERT-naïve patients
Percent predicted Sniff Nasal Inspiratory Pressure, CFBL mean [1, 3]: 2.1%
Percent predicted maximum expiratory pressure, CFBL mean [1, 3]: 9.4%
Percent predicted maximum inspiratory pressure, CFBL mean [1, 3]: 3.7%
Percent predicted Sniff Nasal Inspiratory Pressure, CFBL mean [1, 4]: 5.3%
Percent predicted maximum expiratory pressure, CFBL mean [1, 4]: 16.8%
Percent predicted maximum inspiratory pressure, CFBL mean [1, 4]: 4.5%
Percent predicted Sniff Nasal Inspiratory Pressure, CFBL mean [1, 5]: −2.3%
Percent predicted maximum expiratory pressure, CFBL mean [1, 5]: 13.7%
Percent predicted maximum inspiratory pressure, CFBL mean [1, 5]: −0.5%
Percent predicted Sniff Nasal Inspiratory Pressure, CFBL mean [1, 6]: 7.3%
Percent predicted maximum expiratory pressure, CFBL mean [1, 6]: 17.9%
Percent predicted maximum inspiratory pressure, CFBL mean [1, 6]: −3.8%
Percent predicted Sniff Nasal Inspiratory Pressure, CFBL mean [1, 7]: 9.4%
Percent predicted maximum expiratory pressure, CFBL mean [1, 7]: 11.6%
Percent predicted maximum inspiratory pressure, CFBL mean [1, 7]: 8.0%
Percent predicted Sniff Nasal Inspiratory Pressure, CFBL mean [1, 8]: 8.1%
Percent predicted maximum expiratory pressure, CFBL mean [1, 8]: 17.9%
Percent predicted maximum inspiratory pressure, CFBL mean [1, 8]: 18.7%
Percent predicted Sniff Nasal Inspiratory Pressure, CFBL mean [1, 9]: 4.3%
Percent predicted maximum expiratory pressure, CFBL mean [1, 9]: 14.2%
Percent predicted maximum inspiratory pressure, CFBL mean [1, 9]: 12.5%
Percent predicted Sniff Nasal Inspiratory Pressure, CFBL mean [1, 10]: 4.6%
Percent predicted maximum expiratory pressure, CFBL mean [1, 10]: 24.8%
Percent predicted maximum inspiratory pressure, CFBL mean [1, 10]: 16.1%
Percent predicted Sniff Nasal Inspiratory Pressure, CFBL mean [1, 11]: 4.5%
Percent predicted maximum expiratory pressure, CFBL mean [1, 11]: 10.6%
Percent predicted maximum inspiratory pressure, CFBL mean [1, 11]: 1.1%
Percent predicted Sniff Nasal Inspiratory Pressure, CFBL mean [1, 12]: 7.8%
Percent predicted maximum expiratory pressure, CFBL mean [1, 12]: 21.1%
Percent predicted maximum inspiratory pressure, CFBL mean [1, 12]: 3.3%
Percent predicted Sniff Nasal Inspiratory Pressure, CFBL mean [1, 13]: −0.4%
Percent predicted maximum expiratory pressure, CFBL mean [1, 13]: 11.5%
Percent predicted maximum inspiratory pressure, CFBL mean [1, 13]: −0.4%
Percent predicted Sniff Nasal Inspiratory Pressure, CFBL mean [1, 14]: −4.1%
Percent predicted maximum expiratory pressure, CFBL mean [1, 14]: 21.0%
Percent predicted maximum inspiratory pressure, CFBL mean [1, 14]: 3.9%

alglucosidase alfa [reference compound]
6MWD Absolute Value, Mean [2, 15]: 420.94 meters
6MWD Absolute Value, Median [2, 15]: 385.50 meters
6MWD CFBL at Week 52 ([2]; ERT switch (ERT-experienced) population): 0.0 m
6MWD CFBL at Week 52 ([2]; ERT switch (ERT-experienced) population, listed as Alglucosidase alfa): 0.0 (7.2) m
6MWD CFBL at Week 52 ([2]; ERT treatment naive population): 38 m
6MWD CFBL at Week 52 ([2]; ERT treatment naive population, listed as Alglucosidase alfa): +38.3 (11.1) m
mean (SD) change in 6MWD from baseline to Week 52 ([2]; ERT-experienced Population (n=95)): 0.7 (39.84) meters
mean (SD) change in 6MWD from baseline to Week 52 ([2]; ERT-naïve Population excluding Subject 4005-2511 (n=27)): 38.3 (29.32) meters
mean (SD) change in 6MWD from baseline to Week 52 ([2]; ITT population excluding Subject 4005-2511): 8.0 (40.56) meters
6MWD LS mean improvement from baseline, MMRM with actual time point of assessments ([2]; ITT-OBS excluding Subject 4005-2511, Week 52): 8.3 m
Change in 6MWD baseline to Week 52, LS means (SE) from MMRM ([2]; ITT-OBS, ERT-naïve Population excluding Subject 4005-2511): 39.47 (17.15) meters
CHG to week 52 in 6MWD, LS Mean (95% CI) ([2]; MMRM, actual time point of assessments, ITT-OBS Population excluding Subject 4005-2511 (overall)): 8.3 (−2.2, 18.8) m
CHG to Week 52 in 6MWD, LS Mean ([2]; MMRM, actual time point of assessments, ITT-OBS excluding Subject 4005-2511, ERT-naïve Subjects): 52.7
CHG to Week 52 in 6MWD, LS Mean ([2]; MMRM, actual time point of assessments, ITT-OBS, ERT-experienced Subjects): 0.9
6MWD Absolute Value, Mean (SD) [2, 16]: 334.60 (129.506) meters
6MWD Absolute Value, Median [2, 16]: 339.03 meters
6MWD CHG, Mean (SD) [2, 16]: −0.02 (39.345) meters
6MWD CHG, Median [2, 16]: −8.93 meters
6MWD Absolute Value, Mean [2, 17]: 358.19 meters
6MWD Absolute Value, Median [2, 17]: 370.00 meters
6MWD CHG, Mean [2, 17]: 7.24 meters
6MWD CHG, Median [2, 17]: 1.40 meters
6MWD Absolute Value, Mean [2, 18]: 459.28 meters
6MWD Absolute Value, Median [2, 18]: 446.50 meters
6MWD CHG (change from baseline), Mean [2, 18]: 38.34 meters
6MWD CHG (change from baseline), Median [2, 18]: 33.50 meters
6MWD Absolute Value, Mean (SD) [2, 19]: 335.66 (131.666) meters
6MWD Absolute Value, Median [2, 19]: 348.00 meters
6MWD CHG, Mean (SD) [2, 19]: 0.70 (39.841) meters
6MWD CHG, Median [2, 19]: −8.65 meters
6MWD Absolute Value, Mean [2, 20]: 359.70 meters
6MWD Absolute Value, Median [2, 20]: 371.75 meters
6MWD CHG, Mean [2, 20]: 8.02 meters
6MWD CHG, Median [2, 20]: 3.15 meters
6MWD Absolute Value, Mean [2, 21]: 459.28 meters
6MWD Absolute Value, Median [2, 21]: 446.50 meters
6MWD CHG (change from baseline), Mean [2, 21]: 38.34 meters
6MWD CHG (change from baseline), Median [2, 21]: 33.50 meters
LS Mean (SE), Change from Baseline in 6MWD ([2]; Week 52, ANCOVA, ITT-LOCF excluding outliers with externally studentized residuals >3): 6.95 (6.951) meters
6MWD CHG, LS mean (SE) ([2]; Week 52, MMRM, ITT-OBS excluding Subject 4005-2511): 7.10 (7.043) meters
6MWD CHG, LS means (SE) ([2]; Week 52, MMRM, ITT-OBS, ERT-experienced Population): 0.59 (7.569) meters
6MWD CFBL at Week 52 ([2]; overall ERT switch + ERT naïve population): 7 m
6MWD CFBL at Week 52 ([2]; overall ERT switch + ERT naïve population, listed as Alglucosidase alfa): +7.2 (6.6) m
6MWD CFBL at Week 52 ([2]; overall ERT switch + ERT naïve population, listed as alglucosidase alfa/placebo): 7 m
